Holding throughout (type): in vivo
The test system of assay [1] is Alopecurus myosuroides (ALOMY). As to the kind of experiment: Pre-emergence herbicidal activity, glasshouse pot test. As to conditions: Alopecurus myosuroides, 480 h, rate 500 g/ha, evaluated after 20 days, read-out: Pre-emergence activity, ALOMY (100=total damage to plant; 0=no damage to plant). Put shortly: (§1)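 Visual damage score 0–100 (100 = plant totally killed), taken 20 days after treatment. Spray was applied to pots of sterilised standard soil one day post-sowing, using an aqueous solution of compound in acetone and a surfactant/solvent blend (Emulsogen EL, NMP, DPGME, X-77).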

In assay [2] the test system is Avena fatua (AVEFA). The description is as above. The following applies: Avena fatua, 480 h, rate 500 g/ha, evaluated after 20 days, read-out: Pre-emergence activity, AVEFA (100=total damage to plant; 0=no damage to plant). Put shortly:
as §1

In assay [3] the test system is Digitaria sanguinalis (DIGSA). The description is as above. As to conditions: Digitaria sanguinalis, 480 h, rate 500 g/ha, evaluated after 20 days, read-out: Pre-emergence activity, DIGSA (100=total damage to plant; 0=no damage to plant). In a few lines:
as §1

Assay [4] has as its system Echinochloa crus-galli (ECHCG). The assay is described as above. As to conditions: Echinochloa crus-galli, 480 h, rate 500 g/ha, evaluated after 20 days, read-out: Pre-emergence activity, ECHCG (100=total damage to plant; 0=no damage to plant). In a few lines:
as §1

The subject of assay [5] is Lolium perenne (LOLPE). The assay is described as above. As to conditions: Lolium perenne, 480 h, rate 500 g/ha, evaluated after 20 days, read-out: Pre-emergence activity, LOLPE (100=total damage to plant; 0=no damage to plant). In a few lines: as §1
The test system of assay [6] is Setaria faberi (SETFA). Described as above. The following applies: Setaria faberi, 480 h, rate 500 g/ha, evaluated after 20 days, read-out: Pre-emergence activity, SETFA (100=total damage to plant; 0=no damage to plant). In a few lines:
as §1

Assay [7] relates to Alopecurus myosuroides (ALOMY). Description: Post-emergence herbicidal activity, glasshouse pot test. The following applies: Alopecurus myosuroides, rate 500 g/ha, evaluated after 14 or 15 days, read-out: Post-emergence activity, ALOMY (100=total damage to plant; 0=no damage to plant). Put shortly:
(§2)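 Post-emergence: plants sown in sterilised standard soil, grown 10 days in glasshouse, then sprayed with aqueous solution of active ingredient formulated in acetone with Emulsogen EL, N-methylpyrrolidone, dipropylene glycol monomethyl ether and X-77. Evaluated 14 or 15 days later; scored 0 (no damage) to 100 (total damage).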

Assay [8] relates to Avena fatua (AVEFA). The assay is described as above. The following applies: rate 500 g/ha, evaluated after 14 or 15 days; for pest or weed control at 500 g/ha: Avena fatua, read-out: Post-emergence activity, AVEFA (100=total damage to plant; 0=no damage to plant). Put shortly: as §2
In assay [9] the test system is Digitaria sanguinalis (DIGSA). Described as above. As to conditions: Digitaria sanguinalis, rate 500 g/ha, evaluated after 14 or 15 days, read-out: Post-emergence activity, DIGSA (100=total damage to plant; 0=no damage to plant). In a few lines:
as §2

Assay [10] deals with Echinochloa crus-galli (ECHCG). Described as above. The following applies: Echinochloa crus-galli, rate 500 g/ha, evaluated after 14 or 15 days, read-out: Post-emergence activity, ECHCG (100=total damage to plant; 0=no damage to plant). Put shortly:
as §2

The test system of assay [11] is Lolium perenne (LOLPE). The assay is described as above. The following applies: Lolium perenne, rate 500 g/ha, evaluated after 14 or 15 days, read-out: Post-emergence activity, LOLPE (100=total damage to plant; 0=no damage to plant). In a few lines:
as §2

Assay [12] relates to Setaria faberi (SETFA). The description is as above. As to conditions: Setaria faberi, rate 500 g/ha, evaluated after 14 or 15 days, read-out: Post-emergence activity, SETFA (100=total damage to plant; 0=no damage to plant). In a few lines: as §2

Each structure is given as a SMILES string.

Turning to `CCSC(C)CC1CC(=O)C(c2c(CC)cc(C)cc2CC)=C(O)C1` (stereo not drawn) [Compound T7, 2-(2,6-diethyl-4-methylphenyl)-5-[2-(ethylthio)propyl]cyclohexane-1,3-dione], the pest or weed control at 500 g/ha in assay [1], in assay [2], in [3], in assay [4], in assay [5] and in assay [6] was 100% in each case. Also, the pest or weed control at 500 g/ha is 100% in assay [7]; 90% in [8]; 90% in assay [9]; 90% in assay [10]; 100% in [11]; 100% in assay [12].

On to `CCc1cc(C)cc(C)c1C1=C(O)CC(CC(C)SC)CC1=O` (stereo not drawn) [Compound T10], for which the pest or weed control at 500 g/ha was 100% in [1]; 70% in assay [2]; 100% in assay [3]; 100% in assay [4]; 100% in assay [5]; 100% in assay [6]. The pest or weed control at 500 g/ha came out at 100% in assay [7]; 100% in assay [8]; 90% in assay [9]; 90% in assay [10]; 100% in [11]; 90% in assay [12].

As for `CSCCC1CC(=O)C(c2c(C)cc(C)cc2C)=C(O)C1` (stereo not drawn) [Compound T12], the pest or weed control at 500 g/ha stood at 70% in assay [1]; 20% in assay [2]; 0% in [3]; 30% in assay [4]; 40% in assay [5]; 0% in assay [6]. Further, the pest or weed control at 500 g/ha in assay [7] worked out at 80%; in assay [8], 30%; in assay [9] it was 90%; in [10] it was 80%; in assay [11], 60%; in [12] it was 90%.

As for `CCc1cc(C)cc(C)c1C1=C(O)CC(CCSC)CC1=O` (stereo not drawn) [Compound T13], the pest or weed control at 500 g/ha in [1] was 100%; in assay [2], 70%; in assay [3], 100%; in [4] it was 80%; in [5], 100%; in [6], 80%. Also, the pest or weed control at 500 g/ha in assay [7] was found to be 90%; in assay [8], 80%; in assay [9] it was 100%; in assay [10], 90%; in assay [11] it was 80%; in [12], 90%.

Regarding `CCc1cc(C)cc(CC)c1C1=C(O)CC(CCS(C)(=O)=O)CC1=O` (stereo not drawn) [Compound T14], the pest or weed control at 500 g/ha in assay [1] came out at 90%; in assay [2], 100%; in assay [3], 100%; in assay [4] it was 100%; in assay [5] it was 100%; in [6], 100%. Moreover, the pest or weed control at 500 g/ha in [7] was 90%; in assay [9], 100%; in [10] it was 100%; in [11], 90%; in assay [12], 100%. Further, the “Post-emergence activity, AVEFA (100=total damage to plant; 0=no damage to plant)” value in [8] is reported as 90.

Consider `CCc1cc(C)cc(CC)c1C1=C(O)CC(CC[S+](C)[O-])CC1=O` (stereo not drawn) [Compound T15], for which the pest or weed control at 500 g/ha in assay [1] was 100%; in [2], 80%; in assay [3], 100%; in assay [4], 100%; in assay [5] it was 100%; in assay [6], 90%. In addition, the pest or weed control at 500 g/ha in assay [7] is 90%; in assay [8], 80%; in [9], 100%; in assay [10], 100%; in [11], 100%; in assay [12], 80%.

`CCc1cc(C)cc(CC)c1C1=C(O)CC(CCSC)CC1=O` (stereo not drawn) [Compound T16]: the pest or weed control at 500 g/ha came to 90% in [1]; 70% in assay [2]; 100% in assay [3]; 90% in assay [4]; 100% in assay [5]; 100% in assay [6]. Moreover, the pest or weed control at 500 g/ha worked out at 100% in [7]; 80% in assay [8]; 100% in assay [9]; 70% in assay [10]; 90% in assay [11]; 90% in assay [12].

As to `CCc1cc(C)cc(CC)c1C1=C(O)CC(CC(C)SC)CC1=O` (stereo not drawn) [Compound T17], the pest or weed control at 500 g/ha in assay [1] was determined as 90%; in [2], 90%; in assay [3], 100%; in assay [4], 100%; in assay [5], 100%; in assay [6], 100%. In addition, the pest or weed control at 500 g/ha amounted to 0% in assay [7]; 90% in assay [8]; 100% in assay [9]; 90% in assay [10]; 100% in assay [11]; 90% in [12].

As to `CSC(C)CC1CC(=O)C(c2c(C)cc(C)cc2C)=C(O)C1` (stereo not drawn) [Compound T18], the pest or weed control at 500 g/ha was 20% in assay [1]; 10% in [2]; 60% in [3]; 70% in assay [4]; 10% in assay [5]; 40% in assay [6]. For the same compound, the pest or weed control at 500 g/ha in assay [7] came out at 60%; in assay [8], 60%; in assay [9], 80%; in assay [10] it was 70%; in assay [11], 70%; in assay [12], 80%.

These data come from patent US8084649B2, “Herbicides” (Syngenta Crop Protection, inc., priority 2007, dated 2011).
